Data on 27 compounds can be found in a melting point compilation (Tetko et al.; mined from patent text by program, amines drawn as free bases though some values may be those of a salt).

Usually melting point stands for the temperature of the solid-liquid transition.

Bounds are passed on as bounds.

For `COCCCn1c(Cl)nc2ccc(C)cc21`, the melting point was 40 to 44 °C.

In the case of `Cc1cc(Br)cnc1CCCCNC1=NS(=O)N=C1NCc1ccccc1` (configuration not stated), the melting point was 175 to 176 °C.

Compound `OC(CN1CC=C(c2ccccc2)CC1)c1ccc(Cc2ccc(Cl)cc2)cc1` (configuration not stated) yielded a melting point of 135 to 137 °C.

Compound `CCC(C(=O)O)c1ccc(C(CC)C(=O)O)cc1` (configuration not stated) had a melting point of 198 to 202 °C.

The compound `COc1ccc(Oc2cccc(Oc3ccc4c(c3)OCO4)c2C(=O)O)cc1` came in with a melting point of 163 to 165 °C.

The compound `O=C(C=Cc1ccc(-c2ccc(O)cc2)cc1)NO` yielded a melting point above 300 °C.

In turn, `COc1ccc(-c2cncn2-c2ccc(S(C)(=O)=O)cc2)cc1` came in with a melting point of 185 to 187 °C.

Compound `O=C(O)Cc1c(C(=O)c2ccccc2)[nH]c2cc(Cl)cc(Cl)c12` showed a melting point of 214 to 218 °C.

Compound `CCN(CC)c1ccc(C2(c3c(C)n(CCOc4ccccc4)c4ccccc34)OC(=O)c3ccccc32)c(C)c1` (configuration not stated) displayed a melting point of 182 to 183 °C.

Compound `COc1ccccc1C(=O)c1ccc(OC)c(Cl)c1Cl` had a melting point of 94 to 96 °C.

`Cn1nc(O[C@@H]2c3cc(C(F)(F)C(F)(F)F)ccc3OC(CF)(CF)[C@H]2O)ccc1=O` (relative stereo): the melting point lay in the range of 189 to 191 °C.

As to `CCc1cc(Cc2cnc(N)nc2N)cc(CC)c1O`, the melting point lay in the range of 200 to 202 °C.

On to `COC(=O)CC=CCC(=O)NCCc1ccccc1`, for which the melting point fell in the range of 69 to 70 °C.

`COc1cc2c(cc1OC)C(=O)C(=Cc1cc(Cl)cc(Cl)c1)CC2` registered a melting point of 200 to 201 °C.

As for `CC(=O)Nc1ccc2c(c1)CN(C)CC2`, the melting point was 157 to 159 °C.

`CCC1(O)NC(=O)C=C1C` (configuration not stated) registered a melting point of 182 to 186 °C.

For the compound `O=C1CN(c2cccc(Cl)c2)NC(=O)N1`, the melting point was 224 to 226 °C.

`CN(c1cc(OC(F)(F)F)cc2cc(C3=NCC(CC(N)=O)S3)[nH]c12)S(=O)(=O)c1cccs1` (configuration not stated): the melting point lay in the range of 202 to 203 °C.

With `CCOC(=O)C(=Cc1ccc(-c2nc3ccc(O)cc3o2)cc1)C(=O)OCC`, the melting point was in the range of 153 to 155 °C.

`CCOC(=O)Nc1ccc(N2CCC(=O)CC2)cc1` returned a melting point of 145 to 146 °C.

Compound `O=C(Nc1ccccc1)c1cc(Oc2ccc(C(F)(F)F)cc2Cl)ccc1[N+](=O)[O-]` had a melting point of 190 to 194 °C.

`COc1ccc(-c2nc(CCCCCC(C)(C)c3nnn[nH]3)oc2-c2ccc(OC)cc2)cc1` displayed a melting point of 82 °C.

For the compound `CCCOc1c(C2CCN(CCCCNC(=O)c3ccc(-c4ccc(C(F)(F)F)cc4)cc3)CC2)ccc2ccccc12`, the melting point lay within 191 to 192 °C.

`COc1ccc(C(C#Cc2ccccc2)CC(C)=O)cc1OC1CCCC1` (racemic) yielded a melting point of 62 to 64 °C.

For the compound `COc1ccc2c(c1)CCC(C(O)C(=O)O)C2=O` (configuration not stated), the melting point is 212 to 214 °C.

`COc1cc(C(=O)c2c(N)sc3c2CCN(C(=O)c2ccc(Cl)cc2)C3)ccc1OC(C)C` returned a melting point of 118 to 119 °C.

As to `C=CCSc1nc(O)nn1CC`, the melting point lay in the range of 74 to 76 °C.
